Patent US20110195910A1, “USE OF TOCOTRIENOL COMPOSITION FOR THE PREVENTION OF CANCER” (DAVOS LIFE SCIENCE PTE. LTD., priority 2008, published 2011)

Columns and labels:
PC-3 cells = experiment: Low-dose viability (MTT) and apoptotic markers, PC-3 cells; assay type: cell-based; conditions: 2.5 and 5 μg/ml
Protocol: 5.1.4 Cell viability assay—Cell viability upon γ-T3 treatment was measured by 3-(4,5-Dimethyl thiazol-2-yl)-2,5-diphenyl tetrazolium bromide (MTT) assay. Briefly, cells were seeded on 96 well-plates and treated with different concentrations of γ-T3 for the indicated time point. At the end of the treatment, MTT (Sigma, St. Louis, Mo.) was added into each well and incubated for 4 hrs at RT. DMSO was then added into each well to dissolve the formazan crystals. The plate was allowed to incubate for a further 5 min at RT and the optical density (OD) was measured at a wavelength of 570 nm on a Labsystem multiskan microplate reader (Merck Eurolab, Dietikon, Schweiz). All individual wells were set in triplicates. The percentage of cell viability was presented as OD ratio between the treated and untreated cells at indicated concentrations.
5.1.5 Western blotting was carried out as described above under 1.1.5. The membrane was incubated with primary antibodies directed against CD133 (Miltenyi Biotec, Auburn, Calif.), Bcl-2, PARP, cleaved caspase 3, 7, 9 (Cell Signaling, Technology Inc, Beverly, Mass.), CD44 and β-actin (Santa Cruz Biotechnology, Santa Cruz, Calif.). After washing with TBS-T, the membrane was incubated with secondary antibody against either mouse or rabbit IgG and the signals were visualized using ECL plus western blotting system (Amersham, Piscataway, N.J.).

[1] = test system: PCa tumors (PC-3-Luc xenograft); experiment: Immunohistochemistry of xenograft tumor tissues; set-up: species or system BALB/c athymic nude mice; conditions: mouse, in vivo
Protocol: 4.1.9 Immunohistochemistry—Tumor, liver, kidney, spleen, lung and heart of mice were fixed in 10% neutral buffered formalin for 12 h. After fixation, the tissue samples were processed into paraffin blocks. Tissue sections were cut at a thickness of 5 using Kedee microtome (China JINHUA Kedi Co., Ltd, Zhejiang, China), then deparaffinized in toluene and rehydrated from graded of alcohols to distilled water. Endogenous peroxidase activity was blocked by treating the sections with 0.6% hydrogen peroxide in methanol for 20 min, followed by antigen retrieval treatment. (Dako, Glostrup, Denmark). The sections were then incubated with peroxidase blocking solution (Dako, Glostrup, Denmark) for 1 h at 37° C. to remove any nonspecific antigens. The specimens were incubated overnight at 4° C. with primary rabbit polyclonal antibody against Snail (1:200), Id1 (1:250) (Abcam, Cambridge, UK), cleaved caspase-3 and cleaved PARP (1:50; Cell Signalling Technology, Inc., Beverly, Mass., USA) and mouse monoclonal antibody against proliferating cell nuclear antigen (PCNA), Ki-67, E-cadherin (1:50; Santa Cruz Biotechnology, Santa Cruz, Calif., USA). After several rinse in TBS, the sections were incubated with Dako REALT EnVisionT/HRP, Rabbit/Mouse solution for 1 h at 37° C. The reaction was visualized by Dako REALT DAB^+ chromogen. Mayer's haematoxylin (Dako, Glostrup, Denmark) was used as counter stain. Standard inverted light microscopy (Nikon, Tokyo, Japan) was used to analyze the slides.

[2] = Single acute toxicity test (MTD); assay type: in vivo, C57BL/6 black mice; conditions: single dose i.p., 30-day observation
Protocol: 4.1.5 Single Acute Toxicity Test—The maximum tolerated dose (MTD) was determined by increasing doses on different groups of mice until the highest dose without any mortality is found. Briefly, ninety C57BU6 black mice (ten for each group) received single dose i.p injection containing 1, 2, 4, 8, 12, 16, 20, 30 and 40 mg of γ-T3 in 100 μl injection volume.

For CC(C)=CCC/C(C)=C/CC/C(C)=C/CCC1(C)CCc2cc(O)c(C)c(C)c2O1 (stereo not drawn) [γ-T3, 7,8-dimethyltocotrienol], the “induction of apoptosis (viability assay and apoptotic markers)” value (PC-3 cells) was “failed to detect a drastic induction of apoptosis”, the “E-cadherin expression in tumor sections” value [1] was “up-regulated” and the “Snail expression in tumor sections” value [1] was “down-regulated”. For the same compound, the “level of PCNA, Ki67 and Id-1 in tumors” value [1] was “downregulated”, the “level of cleaved caspase 3 and PARP in tumors” value [1] was “induced” and the “maximum tolerated dose (MTD)” value [2] was 12 mg.
